{"source": "patent US20110257135A1", "about": "“TOPICAL PESTICIDE FORMULATION” (priority 2008, published 2011)", "format_in_all_cases": "in vivo", "key": {"[1]": {"tested_on": "mice", "assay": "Initial topical test of 4% w/v formulation on mice", "conditions": "4% w/v cholecalciferol in absolute alcohol, 0.5 ml per animal", "excerpt": "(§1) A formulation of the present invention was initially prepared and tested on mice and laboratory rats to determine the viability of the invention. The formulation contained cholecalciferol in an amount of 4% w/v and absolute alcohol. […] These studies are described in the following examples."}, "[2]": {"tested_on": "laboratory rats", "assay": "Initial topical test of 4% w/v formulation on laboratory rats", "conditions": "4% w/v cholecalciferol in absolute alcohol, 0.5 ml per animal", "excerpt": "as §1"}, "[3]": {"tested_on": "stoats", "assay": "Dermal application of test solution to wild-caught stoats (Example 2 study)", "method": "A test solution of approximately 100 ml was formulated, containing Vitamin D3 (cholecalciferol) resin in the solvent absolute alcohol. The concentration of cholecalciferol in the solution was about 40% w/v. The formulation was designed to kill stoats.\nWild-caught adult stoats (three male and three female) were housed in outdoor cages (60×150×90 cm). Each stoat was provided with a nest box (40×33×15 cm) containing shredded paper as nesting material. Stoats were fed a rotation of, dead day-old chicks, chicken pet mince and mutton/beef pet mince in the afternoon and had free access to water.\nThey were acclimatised to captivity for at least 5 months prior to being used in the trial. The stoats were lightly anaesthetised with isoflurane, weighed and then had 1.5 ml of the test solution applied to their skin and fur, using a syringe to deliver a line of solution along the spine from the nape to the base of the tail. This was a ‘high exposure’ simulation of the manner in which the delivery system would apply a toxic solution to the fur and skin of stoats.\nAfter application of the solution, the stoats were placed into large nest boxes which were lined with paper but without bedding material, to facilitate observation. Dark Perspex lids were kept on the nest boxes to minimise disturbance of stoats by human observers. The stoats were monitored constantly through recovery from anaesthesia and then for the next three hours to record their responses to the solution on their coats and document any behaviour associated with its presence e.g. grooming, rubbing or rolling. After the three hour observation period in the boxes, stoats were returned to their outdoor cages with nesting material, food and water freely available. […] After this, observations of each stoat were recorded once daily, noting any signs of illness that are associated with cholecalciferol poisoning, e.g. stop feeding, significant body weight loss. Where any signs of illness occurred, the monitoring was to be increased to twice daily (morning and afternoon).\nFeed intakes of the stoats were visually estimated for at least three days prior to dosing, i.e. ration all eaten, half eaten, quarter eaten, none eaten. Food intake was similarly noted daily after dosing through until death or 21 days (whichever occurred first). Stoats were weighed at least once a week after dosing, through to death or 21 days (which ever occurred first). Any stoats that died during the 21 day observation were to be retained for necropsy. Typical signs of poisoning (inappetance combined with significant body weight loss) were used as an alternative endpoint for the trial, with a weight loss greater than 25% of bodyweight at dosing triggering euthanasia. Stoats that survived the 21 day observation were to be euthanized."}, "[4]": {"tested_on": "weasels", "assay": "Proof of concept trial on wild weasels (Example 3 study)", "excerpt": "Three wild weasels were caught for a proof of concept trial to determine if the formulation of the invention would be effective as a humane method of killing these pests. The weasels were caged separately in individual waterproof, roofed, wired enclosures of approximately 1 m^2. The animals were fed on raw meat, by simply placing the meat on a wire hooked into the side of the cages. In eating the animals simply pulled on and chewed the meat. Drinking water was available. Within each enclosure was a small box of 25×25 cm with a mesh roof. A vertical sliding door could be removed to provide an entrance to the enclosure and the enclosure was half filled with nesting material of hay. It was observed that the animals covered themselves in the hay and made pathways through it.\nEach of the animals was then treated with a formulation comprising 32% cholecalciferol (resin form) in solution with the glycol ether, DGMEE, and observations were made.\nThe first animal, a male weasel weighing 157 grams, was treated by application of 1 ml of the formulation using a syringe to the back of the animal. This weasel died within 44 hours of application of the formulation.\nThe second animal, a female weasel weighing 94 grams, was treated using an eradication apparatus as described above. The electronically activated apparatus was placed into the cage of the animal. The apparatus comprised of a tunnel, including a sensing means comprising two pairs of sensors, and a tracking card to record the footprints of the weasel to establish that the animal had passed through the tunnel. An automatic dispensing means was operatively connected to the tunnel, so that when the weasel passed through the tunnel and the two pairs of sensors were covered ,simultaneously, the dispensing , means was automatically activated to deliver the formulation to the animal. In this manner, approximately 0.9 ml of the cholecalciferol formulation was applied to the back of the weasel as it passed through the tunnel of the apparatus. It was observed that some of the formulation was present on the tracking card so the weasel had not received the total volume of the formulation. The weasel died approximately 50 hours after receiving the formulation.\nThe third animal, a male weasel weighing 54 grams was treated by squirting approximately 1 ml of the formulation onto the back of the animal using a hand held syringe. This weasel died within about 39 hours of application of the formulation."}, "[5]": {"tested_on": "Rattus rattus (bush rat)", "assay": "Topical administration to live captured bush rats (Example 4 study)", "method": "Three animals of the species Rattus rattus (also known as the bush rat) were live captured. They were placed in separate enclosures with on demand food and water supplies, and nesting material of dry hay. After 14 days of acclimatization to these conditions, the animals were each treated with a formulation comprising a solution of 33% cholecalciferol (resin form) in the glycol ether, DGMEE. Each animal was given a dose of about 3 ml of the formulation by topical administration to the back of the animal using a calibrated syringe. Each of the animals died within six days of receiving the formulation. The first rat, a male weighing 122 grams, weighed 106 grams at death. The second rat, a female weighing 108 grams, weighed 98 grams at death. The third rat, a male weighing 97 grams, weighed 90 grams at death."}, "[6]": {"conditions": "Stoat Female 407, 193 g at dosing, 2331 mg/kg dermal"}, "[7]": {"conditions": "Stoat Male 391, 235 g at dosing, 1914 mg/kg dermal"}, "[8]": {"conditions": "Stoat Male 415, 382 g at dosing, 1178 mg/kg dermal"}, "[9]": {"conditions": "Stoat Male 419, 359 g at dosing, 1253 mg/kg dermal"}}}
{"molecule": "C=C1CC[C@H](O)C/C1=C/C=C1\\CCC[C@]2(C)[C@@H]([C@H](C)CCCC(C)C)CC[C@@H]12", "note": "[cholecalciferol]", "values": [{"measurement": "death of the animal", "setting": "[1]", "result": "death of the animal occurred within a reasonably short time frame"}, {"measurement": "death of the animal", "setting": "[2]", "result": "death of the animal occurred within a reasonably short time frame"}, {"measurement": "% weight loss at death", "setting": "[3]; Stoat Female 407, 2331 mg/kg dermal", "result": 46, "unit": "%"}, {"measurement": "Fate (days after dosing)", "setting": "[3]; Stoat Female 407, 193 g at dosing, 1.5 ml test solution, estimated exposure 2331 mg/kg", "result": "died (12)"}, {"measurement": "Weight at day 7", "setting": "[3]; [6]", "result": 151, "unit": "g"}, {"measurement": "Weight at day 12", "setting": "[3]; [6]", "result": 112, "unit": "g"}, {"measurement": "% weight loss at death", "setting": "[3]; Stoat Female 413, 2486 mg/kg dermal", "result": 44, "unit": "%"}, {"measurement": "Fate (days after dosing)", "setting": "[3]; Stoat Female 413, 181 g at dosing, 1.5 ml test solution, estimated exposure 2486 mg/kg", "result": "died (11)"}, {"measurement": "Weight at day 7", "setting": "[3]; Stoat Female 413, 181 g at dosing, 2486 mg/kg dermal", "result": 120, "unit": "g"}, {"measurement": "% weight loss at death", "setting": "[3]; Stoat Female 414, 2205 mg/kg dermal", "result": 13, "unit": "%"}, {"measurement": "Fate (days after dosing)", "setting": "[3]; Stoat Female 414, 204 g at dosing, 1.5 ml test solution, estimated exposure 2205 mg/kg", "result": "died (4)"}, {"measurement": "% weight loss at death", "setting": "[3]; Stoat Male 391, 1914 mg/kg dermal", "result": 30, "unit": "%"}, {"measurement": "Fate (days after dosing)", "setting": "[3]; Stoat Male 391, 235 g at dosing, 1.5 ml test solution, estimated exposure 1914 mg/kg", "result": "euthanized (12)"}, {"measurement": "Weight at day 7", "setting": "[3]; [7]", "result": 188, "unit": "g"}, {"measurement": "Weight at day 12", "setting": "[3]; [7]", "result": 166, "unit": "g"}, {"measurement": "% weight loss at death", "setting": "[3]; Stoat Male 415, 1178 mg/kg dermal", "result": 36, "unit": "%"}, {"measurement": "Weight at day 7", "setting": "[3]; [8]", "result": 296, "unit": "g"}, {"measurement": "Weight at day 12", "setting": "[3]; [8]", "result": 254, "unit": "g"}, {"measurement": "Fate (days after dosing)", "setting": "[3]; Stoat Male 415, 382 g at dosing, 1.5 ml test solution (nominal 40%, assayed 30%, absolute alcohol), estimated exposure 1178 mg/kg", "result": "euthanized (12)"}, {"measurement": "% weight loss at death", "setting": "[3]; Stoat Male 419, 1253 mg/kg dermal", "result": 37, "unit": "%"}, {"measurement": "Weight at day 7", "setting": "[3]; [9]", "result": 277, "unit": "g"}, {"measurement": "Weight at day 12", "setting": "[3]; [9]", "result": 253, "unit": "g"}, {"measurement": "Fate (days after dosing)", "setting": "[3]; Stoat Male 419, 359 g at dosing, 1.5 ml test solution, estimated exposure 1253 mg/kg", "result": "euthanized (12)"}, {"measurement": "inappetance (stop feed effect)", "setting": "[3]; from the first night after dosing, generally eating less than half of rations each day", "result": "All six stoats showed inappetance"}, {"measurement": "effective lethal dermal exposure (in excess of or equal to a dermal LD99 value)", "setting": "[3]; lower end of exposure range in stoats, test solution in absolute alcohol", "result": 1178, "unit": "mg/kg"}, {"measurement": "cages with vomitus present", "setting": "[3]; morning after return to outdoor cages, 1.5 ml test solution", "result": "three of the 6"}, {"measurement": "mortality (number of stoats)", "setting": "[3]; six stoats, over 12 days after dosing, 1.5 ml test solution", "result": "three"}, {"measurement": "necropsy findings", "setting": "[3]; stoats that died", "result": "no gross evidence of calcification/mineralisation or lung damage"}, {"measurement": "time of euthanasia after dosing (weight loss endpoint), male stoats", "setting": "[3]; three male stoats, 1.5 ml test solution, 1178-1914 mg/kg", "result": 12, "unit": "days"}, {"measurement": "appetite after application", "setting": "[4]; female weasel 94 grams, approximately 0.9 ml of 32% cholecalciferol in DGMEE", "result": "lost its appetite"}, {"measurement": "time to death", "setting": "[4]; female weasel 94 grams, approximately 0.9 ml of 32% cholecalciferol in DGMEE via eradication apparatus, not total volume received", "result": "approximately 50 hours"}, {"measurement": "time to death", "setting": "[4]; male weasel 54 grams, approximately 1 ml of 32% cholecalciferol in DGMEE by hand held syringe", "result": "≤ 39", "unit": "h"}, {"measurement": "time to death", "setting": "[4]; male weasel 157 grams, 1 ml of 32% cholecalciferol (resin) in DGMEE by syringe to the back", "result": "≤ 44", "unit": "h"}, {"measurement": "food consumption after application", "setting": "[4]; male weasel 157 grams, 1 ml of 32% cholecalciferol in DGMEE", "result": "ate only a small quantity of what it had previously been consuming"}, {"measurement": "weight at death", "setting": "[5]; first rat, male weighing 122 grams, about 3 ml of 33% cholecalciferol in DGMEE", "result": 106, "unit": "grams"}, {"measurement": "hair loss at application site", "setting": "[5]; over the first few days of treatment, about 3 ml of 33% cholecalciferol in DGMEE", "result": "hair loss was observed on all of the animals"}, {"measurement": "weight at death", "setting": "[5]; second rat, female weighing 108 grams, about 3 ml of 33% cholecalciferol in DGMEE", "result": 98, "unit": "grams"}, {"measurement": "weight at death", "setting": "[5]; third rat, male weighing 97 grams, about 3 ml of 33% cholecalciferol in DGMEE", "result": 90, "unit": "grams"}, {"measurement": "time to death", "setting": "[5]; three bush rats, about 3 ml of 33% cholecalciferol (resin) in DGMEE, topical to the back", "result": "six"}]}
